In brackets after ≈: the same amount, converted by molar mass.
How the values were obtained:
Type in all cases: cell-based
[1] = tested on: Rhodotorula mucilaginosa; test: Serial dilution test according to DGHM (MIC); conditions: aqueous 2% by weight strength solution in fully deionized water; unit assumed
Source text: (§1) Solutions of in each case 2% strength by weight in fully deionized water were examined against selected bacteria and/or yeasts and/or fungi and/or algae using the serial dilution test according to DGHM [German Society for Hygiene and Microbiology]. MIC values of the aqueous 2% by weight strength solutions: […]

[2] = tested on: Chlorella fusca; test: Serial dilution test according to DGHM (MIC); conditions: aqueous 2% by weight strength solution in fully deionized water; unit assumed
Source text: as §1

[3] = tested on: Cand. albicans; test: Serial dilution test according to DGHM (MIC); conditions: aqueous 2% by weight strength solution in fully deionized water; unit assumed
Source text: as §1

[4] = tested on: Asperg. niger; test: Serial dilution test according to DGHM (MIC); conditions: aqueous 2% by weight strength solution in fully deionized water; unit assumed
Source text: as §1

[5] = tested on: Penicillium funiculosum; test: Serial dilution test according to DGHM (MIC); conditions: aqueous 2% by weight strength solution in fully deionized water; unit assumed
Source text: as §1

[6] = tested on: E. coli; test: Serial dilution test according to DGHM (MIC); conditions: aqueous 2% by weight strength solution in fully deionized water; unit assumed
Source text: as §1

[7] = tested on: Pseudomonas aeruginosa; test: Serial dilution test according to DGHM (MIC); conditions: aqueous 2% by weight strength solution in fully deionized water; unit assumed
Source text: as §1

[8] = tested on: Alternaria alternata; test: Serial dilution test according to DGHM (MIC); conditions: aqueous 2% by weight strength solution in fully deionized water; unit assumed
Source text: as §1

[9] = tested on: Fusarium oxysporum; test: Serial dilution test according to DGHM (MIC); conditions: aqueous 2% by weight strength solution in fully deionized water; unit assumed
Source text: as §1

[10] = tested on: Penicillium funiculosum (PF); test: Fungicidal finish (SM 022) of pure acrylate house paint; conditions: for Fungicidal finish, colonization rating PF: without stress due to leaching
Description: (§2) In separate batches, the test concentrations of the active compounds/products were incorporated into the house paint, and the fungicidal and/or algistatic finish was determined using the stated test methods.
(§3) Incorporation and testing were carried out according to the methods SM 022 and SM 023 below.
(§4) This laboratory method was used to determine the resistance of house coatings to fungal attack. For the method, house coatings on standardized paper were used as test substrate, and Aspergillus niger (ATCC 6275) and Penicillium funiculosum (ATCC 36839) were used as test fungi. The experiments were carried out in Petri dishes on dextrose nutrient medium.
(§5) 50 g of the material to be finished were, in separate batches, mixed with various concentrations of the fungicide to be examined and homogenized for 3-5 min using a basket stirrer.
(§6) Paper carrier materials having the dimensions 90×270 mm (Schleicher & Schüll No. 2589 B/X 24078) were coated with the test material. The paint and/or render samples were coated to a wet-layer thickness of 250 μm by knife coating. […] In the case of renders, the layer thickness depended, as in practice, on the particle size. The coated carrier materials, hereinbelow referred to as test bodies, were subsequently dried in a horizontal position for five days.
[…] The cross section of the container for the watering in the direction of flow was 1000±500 cm^2.
(§7) From the pretreated test bodies, sample bodies having a diameter of 5 cm were punched out and sterilized in a Co^60 source using at least 10 kGy.
(§8) The Sabouraud dextrose agar, which had solidified in the Petri dish, was inoculated with 0.2 ml of spore suspension (10^7 spores/ml) and plated out using a sterile Drigalski spatula or an offset sterile glass rod.
(§9) The pretreated sample bodies were then evenly placed onto the inoculated surface of the nutrient medium using a pair of tweezers, making sure that the entire surface of the sample body was in contact with the surface of the nutrient medium. The sample was subsequently incubated at 30±2° C. for three weeks. For other test germs, the incubation temperature had to be adapted to achieve optimum growth.
(§10) After one, two and three weeks, the sample bodies were examined for fungal growth. Evaluation was carried out visually or—if this was required to exclude foreign infections—using a magnifying glass. If the extent of the colonization by foreign organisms observed considerably interfered with the evaluation, the experiment could not be evaluated and was repeated. The evaluation of the samples was based on the following evaluation scale:
(§11) 00—entire plate free from colonization*
(§12) 0—zone formation (no colonization around the sample)*
(§13) (0)—fungal colonization up to the sample*
(§14) 1—only the sample edge is colonized*
(§15) 2—the sample is colonized from the edge inwards (less than 25%)
(§16) 3—the sample surface is colonized by individual colonies (25-75%)
(§17) 4—the sample surface is colonized extensively (75% and more, but not the entire surface)
(§18) 5—the sample surface is colonized completely (100%)
(§19) *Note: Samples evaluated as 00, 0, (0) and 1 can be referred to as “being effectively finished against fungal growth”.

[11] = tested on: Aspergillus niger (AN); test: as above; conditions: for Fungicidal finish, colonization rating AN: without stress due to 72 hours leaching (so in the source)
Description: as §2, §3, §4, §5, §6
The test bodies were watered in running tap water of 15±5° C. and a flow rate of 1 l/min for 72 hours and subsequently dried for two days. The cross section of the container for the watering in the direction of flow was 1000±500 cm^2.
as §7, §8, §9, §10, §11, §12, §13, §14, §15, §16, §17, §18, §19

[12] = tested on: Mixed suspension of bacteria and fungi; test: Boko test in water-diluted cutting fluids, mixed suspension
Description: In separate batches, in each case 100 ml of the water-diluted cutting fluid to be preserved were admixed with various concentrations of the preservatives to be examined. The growth control used was in each case an unpreserved sample. Two days after the incorporation of the preservatives, the test batches were infected for the first time using 1 ml of an inoculating solution. The inoculating solution used was a suspension of the germs listed below (cultivated on nutrient media and then adapted to water-diluted cutting fluids). […] [table] The test batches were subsequently inoculated two times a week and plated onto agar plates two times per week, the first smear being carried out immediately prior to the new inoculation. The microbial growth on the smears was assessed after incubation at 25° C. for three days. […] The preservative effect of the individual product concentrations was assessed in a semiquantitative method by the colonization of the individual smears using the classification from − to +to +++. Growth was differentiated according to bacteria, yeasts and moulds. The test was usually carried out for twelve inoculation cycles or interrupted after repeated +++growth. The cutting fluids Shell Dromus BX or Almasol EP from Castrol or Rondocor Kompakt from Consulta were examined as 4% strength by weight emulsions in tap water from the city of Norderstedt. Inoculation was carried out using a suspension of bacteria or fungi or a mixed suspension of bacteria and fungi.

- MIC value RM [1]: 3.12 µg/mL (≈ 16.8 µM)
- MIC value CF [2]: 0.39 µg/mL (≈ 2.09 µM)
- MIC value CA [3]: > 6.25 µg/mL
- MIC value AN [4]: 6.25 µg/mL (≈ 33.6 µM)
- MIC value PF [5]: 1.56 µg/mL (≈ 8.38 µM)
- MIC value EC [6]: 6.25 µg/mL (≈ 33.6 µM)
- MIC value PS [7]: 6.25 µg/mL (≈ 33.6 µM)
- MIC value AL [8]: 6.25 µg/mL (≈ 33.6 µM)
- MIC value FO [9]: 1.56 µg/mL (≈ 8.38 µM)
Compound: CC1CN(CN2COC(C)C2)CO1 (centres unmarked) [Mar 71, 3,3′-methylenebis-(5-methyloxazolidine)]
- Fungicidal activity (in words), PF ([10]; house paint test): no fungicidal activity in practice
- Fungicidal finish, colonization rating PF ([10]; use conc. 0.5% W/W, 1. week): 5 (the sample surface is colonized completely (100%))
- Fungicidal finish, colonization rating PF ([10]; use conc. 0.5% W/W, 2. week): 5 (the sample surface is colonized completely (100%))
- Fungicidal finish, colonization rating PF ([10]; use conc. 1.0% W/W, 1. week): 5 (the sample surface is colonized completely (100%))
- Fungicidal finish, colonization rating PF ([10]; use conc. 1.0% W/W, 2. week): 5 (the sample surface is colonized completely (100%))
- Fungicidal finish, colonization rating PF ([10]; use conc. 2.0% W/W, 1. week): 3 (the sample surface is colonized by individual colonies (25%-75%))
- Fungicidal finish, colonization rating PF ([10]; use conc. 2.0% W/W, 2. week): 4 (the sample surface is colonized extensively (75% and more, but not the entire surface))
- Fungicidal activity (in words), AN ([11]; house paint test): no fungicidal activity in practice
- Fungicidal finish, colonization rating AN ([11]; use conc. 0.5% W/W, 1. week): 5 (the sample surface is colonized completely (100%))
- Fungicidal finish, colonization rating AN ([11]; use conc. 0.5% W/W, 2. week): 5 (the sample surface is colonized completely (100%))
- Fungicidal finish, colonization rating AN ([11]; use conc. 1.0% W/W, 1. week): 5 (the sample surface is colonized completely (100%))
- Fungicidal finish, colonization rating AN ([11]; use conc. 1.0% W/W, 2. week): 5 (the sample surface is colonized completely (100%))
- Fungicidal finish, colonization rating AN ([11]; use conc. 2.0% W/W, 1. week): 5 (the sample surface is colonized completely (100%))
- Fungicidal finish, colonization rating AN ([11]; use conc. 2.0% W/W, 2. week): 5 (the sample surface is colonized completely (100%))
- Number of inoculation cycles passed on inoculation with Mixed suspension ([12]; Cutting fluid Almasol EP, use concentration 0.05% by weight): 11
- Number of inoculation cycles passed on inoculation with Mixed suspension ([12]; Cutting fluid Almasol EP, use concentration 0.10% by weight): >12
- Number of inoculation cycles passed on inoculation with Mixed suspension ([12]; Cutting fluid Almasol EP, use concentration 0.15% by weight): 11
- Number of inoculation cycles passed on inoculation with Mixed suspension ([12]; Cutting fluid Rondocor Kompakt, use concentration 0.05% by weight): >12
- Number of inoculation cycles passed on inoculation with Mixed suspension ([12]; Cutting fluid Rondocor Kompakt, use concentration 0.10% by weight): >12
- Number of inoculation cycles passed on inoculation with Mixed suspension ([12]; Cutting fluid Rondocor Kompakt, use concentration 0.15% by weight): >12
- Number of inoculation cycles passed on inoculation with Mixed suspension ([12]; Cutting fluid Shell Dromus BX, use concentration 0.05% by weight): 4
- Number of inoculation cycles passed on inoculation with Mixed suspension ([12]; Cutting fluid Shell Dromus BX, use concentration 0.10% by weight): 11
- Number of inoculation cycles passed on inoculation with Mixed suspension ([12]; Cutting fluid Shell Dromus BX, use concentration 0.15% by weight): >12

Source: US6348483B1, “Use of derivatives of methylene-bis-oxazolidine and compositions obtained thereby” (Air Liquide Sante (International), priority 1998, dated 2002)
